Data taken from ChEMBL document CHEMBL1759899, “Design and synthesis of several small-size HTLV-I protease inhibitors with different hydrophilicity profiles” (Bioorg Med Chem Lett, 2011).
Numbered stars: 1 amine (or outer) side, 2 acyl side, 3 side chain; on linkers, the order of the positions; unused ones are H or OH. Square brackets hold non-standard residues; d marks the D form. Peptide text beside a SMILES is read from it. * marks the point of attachment. X1 = O=C([C@@H](O)[C@H](Cc1ccccc1)N[*:1])[*:2]; Thz(5,5-Me2) = CC1(C)SCN[C@@H]1C(=O)O; Phg = N[C@H](C(=O)O)c1ccccc1; Tle = CC(C)(C)[C@H](N)C(=O)O; Dap = NC[C@H](N)C(=O)O; NHCH2tBu = CC(C)(C)CN*

What was measured:
[1] = test system: T1, Protease (Human T-cell leukemia virus type I), Q82134 [L40I]; test: Inhibition of HTLV-1 recombinant protease L40I mutant at 50 nM
T1 sequence (whole entry): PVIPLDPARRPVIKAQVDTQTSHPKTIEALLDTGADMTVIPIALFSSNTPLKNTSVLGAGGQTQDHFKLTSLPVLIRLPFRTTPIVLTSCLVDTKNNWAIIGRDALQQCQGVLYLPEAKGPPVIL

[2] = molecular target: Protease (Human immunodeficiency virus 1) (UniProt Q9YQ12); test: Inhibition of HIV1 recombinant protease at 50 nM
Protease = Protease (Human T-cell leukemia virus type I, UniProt Q82134, L40I); test: Inhibition of HTLV-1 recombinant protease L40I mutant

Chain of Protease (Human immunodeficiency virus 1) (Q9YQ12 as listed by the source): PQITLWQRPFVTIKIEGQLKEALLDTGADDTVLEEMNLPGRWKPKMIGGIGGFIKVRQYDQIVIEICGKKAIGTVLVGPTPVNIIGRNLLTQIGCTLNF

SMILES	inhibition [1] [%]	inhibition [2] [%]	IC50 (Protease) [nM]
CC(C)(C)CNC(=O)[C@H]1N(C(=O)[C@@H](O)[C@H](Cc2ccccc2)NC(=O)[C@@H](NC(=O)[C@@H](NCc2ccccc2)c2ccccc2)C(C)(C)C)CSC1(C)C	44	92	
CCN(CC)[C@H](C(=O)N[C@H](C(=O)N[C@@H](Cc1ccccc1)[C@H](O)C(=O)N1CSC(C)(C)[C@H]1C(=O)NCC(C)(C)C)C(C)(C)C)c1ccccc1	39	98	
CN[C@H](C(=O)N[C@H](C(=O)N[C@@H](Cc1ccccc1)[C@H](O)C(=O)N1CSC(C)(C)[C@H]1C(=O)NCC(C)(C)C)C(C)(C)C)c1ccccc1	38	> 99	31.4
CC(C)(C)CNC(=O)[C@H]1N(C(=O)[C@@H](O)[C@H](Cc2ccccc2)NC(=O)[C@@H](NC(=O)[C@@H](NC(=O)CN)c2ccccc2)C(C)(C)C)CSC1(C)C (H-G[Phg][Tle][X1][Thz(5,5-Me2)]-NHCH2tBu)		94	41.1
COC(=O)N[C@H](C(=O)N[C@H](C(=O)N[C@@H](Cc1ccccc1)[C@H](O)C(=O)N1CSC(C)(C)[C@H]1C(=O)NNC(C)(C)C)C(C)(C)C)c1ccccc1		99	10.4
COC(=O)N[C@H](C(=O)N[C@H](C(=O)N[C@@H](Cc1ccccc1)[C@H](O)C(=O)N1CSC(C)(C)[C@H]1C(=O)NCC(C)(C)O)C(C)(C)C)c1ccccc1		99	39.1
CC(C)(C)CNC(=O)[C@H]1N(C(=O)[C@@H](O)[C@H](Cc2ccccc2)NC(=O)[C@@H](NC(=O)[C@@H](NC(=O)C(C)(CO)CO)c2ccccc2)C(C)(C)C)CSC1(C)C	18	86	
CCN[C@H](C(=O)N[C@H](C(=O)N[C@@H](Cc1ccccc1)[C@H](O)C(=O)N1CSC(C)(C)[C@H]1C(=O)NCC(C)(C)C)C(C)(C)C)c1ccccc1	38	99	25.5
CCCC(=O)N[C@H](C(=O)N[C@H](C(=O)N[C@@H](Cc1ccccc1)[C@H](O)C(=O)N1CSC(C)(C)[C@H]1C(=O)NCC(C)(C)C)C(C)(C)C)c1ccccc1		99	
COC(=O)N[C@H](C(=O)N[C@H](C(=O)N[C@@H](Cc1ccccc1)[C@H](O)C(=O)N1CSC(C)(C)[C@H]1C(=O)NCC(C)(C)C)C(C)(C)C)c1ccccc1		99	7.2
CN(C)[C@H](C(=O)N[C@H](C(=O)N[C@@H](Cc1ccccc1)[C@H](O)C(=O)N1CSC(C)(C)[C@H]1C(=O)NCC(C)(C)C)C(C)(C)C)c1ccccc1	38	99	
CC(C)(C)CNC(=O)[C@H]1N(C(=O)[C@@H](O)[C@H](Cc2ccccc2)NC(=O)[C@@H](NC(=O)[C@@H](NC(=O)CCN)c2ccccc2)C(C)(C)C)CSC1(C)C	90	99	5.7
CC(C)(C)CNC(=O)[C@H]1N(C(=O)[C@@H](O)[C@H](Cc2ccccc2)NC(=O)[C@@H](NC(=O)[C@@H](NC(=O)CCCN)c2ccccc2)C(C)(C)C)CSC1(C)C		99	25.4
CC(C)(C)CNC(=O)[C@H]1N(C(=O)[C@@H](O)[C@H](Cc2ccccc2)NC(=O)[C@@H](NC(=O)[C@@H](NC(=O)[C@@H](N)CN)c2ccccc2)C(C)(C)C)CSC1(C)C (H-[Dap][Phg][Tle][X1][Thz(5,5-Me2)]-NHCH2tBu)	8	72	
CC(C)(C)CNC(=O)[C@H]1N(C(=O)[C@@H](O)[C@H](Cc2ccccc2)NC(=O)[C@@H](NC(=O)[C@@H](N)c2ccccc2)C(C)(C)C)CSC1(C)C	38		
